Reference: PubChem BioAssay AID272 (DTP/NCI, 2004)
Inconclusive results are not listed.

System: Lewis lung carcinoma i.m., BDF1 mice, T/C %
Assay: NCI In Vivo Anticancer Drug Screen. Data for tumor model Lewis Lung Carcinoma (intramuscular) in B6D2F1 (BDF1) mice
Method in brief: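 Compound given to mice with transplantable tumours; survival or tumour size compared against the vehicle control group, reported as T divided by C.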

O=c1cnn(C2OC(CO)C(O)C2O)c(=O)[nH]1 (centres undefined)
T/C (endpoint: median survival time, dose: 75.0 mg/kg/injection, schedule: Q01DX009 (ip), vehicle: Klucel (hydroxypropylcellulose) (HPC), higher = longer survival): 112 % of control
T/C (endpoint: median survival time, dose: 150.0 mg/kg/injection, schedule: Q01DX009 (ip), vehicle: Klucel (hydroxypropylcellulose) (HPC), higher = longer survival): 120 % of control
T/C (endpoint: median survival time, dose: 300.0 mg/kg/injection, schedule: Q01DX009 (ip), vehicle: Klucel (hydroxypropylcellulose) (HPC), higher = longer survival): 121 % of control
T/C (endpoint: median survival time, dose: 600.0 mg/kg/injection, schedule: Q01DX009 (ip), vehicle: Klucel (hydroxypropylcellulose) (HPC), higher = longer survival): 119 % of control

Cc1cccc2cc3c(ccc4ccccc43)c[n+]12
T/C (endpoint: mean tumor weight (est.), dose: 1.0 mg/kg/injection, schedule: Q01DX011 (ip), vehicle: saline, higher = larger tumour): 91 % of control
T/C (endpoint: mean tumor weight (est.), dose: 2.0 mg/kg/injection, schedule: Q01DX011 (ip), vehicle: saline, higher = larger tumour): 87 % of control
T/C (endpoint: mean tumor weight (est.), dose: 4.0 mg/kg/injection, schedule: Q01DX011 (ip), vehicle: saline, higher = larger tumour): 83 % of control
T/C (endpoint: mean tumor weight (est.), dose: 8.0 mg/kg/injection, schedule: Q01DX011 (ip), vehicle: saline, higher = larger tumour): 46 % of control
T/C (endpoint: median survival time, dose: 1.0 mg/kg/injection, schedule: Q01DX011 (ip), vehicle: saline, higher = longer survival): 98 % of control
T/C (endpoint: median survival time, dose: 2.0 mg/kg/injection, schedule: Q01DX011 (ip), vehicle: saline, higher = longer survival): 101 % of control
T/C (endpoint: median survival time, dose: 4.0 mg/kg/injection, schedule: Q01DX011 (ip), vehicle: saline, higher = longer survival): 98 % of control
T/C (endpoint: median survival time, dose: 8.0 mg/kg/injection, schedule: Q01DX011 (ip), vehicle: saline, higher = longer survival): 121 % of control

COC(=O)CC(OC)c1nc(C(=O)OC)c(C)c(=O)[nH]1 (centres undefined)
T/C (endpoint: median survival time, dose: 8.0 mg/kg/injection, schedule: Q01DX009 (ip), vehicle: Klucel (hydroxypropylcellulose) (HPC), higher = longer survival): 114 % of control
T/C (endpoint: median survival time, dose: 16.0 mg/kg/injection, schedule: Q01DX009 (ip), vehicle: Klucel (hydroxypropylcellulose) (HPC), higher = longer survival): 123 % of control
T/C (endpoint: median survival time, dose: 32.0 mg/kg/injection, schedule: Q01DX009 (ip), vehicle: Klucel (hydroxypropylcellulose) (HPC), higher = longer survival): 88 % of control

Cc1cc(/C=C/c2cc[n+](C)c3ccccc23)c(O)c2ncccc12
T/C (endpoint: mean tumor weight, dose: 6.0 mg/kg/injection, schedule: Q01DX011 (ip), vehicle: saline, higher = larger tumour): 76 % of control
T/C (endpoint: median survival time, dose: 6.0 mg/kg/injection, schedule: Q01DX011 (ip), vehicle: saline, higher = longer survival): 102 % of control

CCC/C(C)=N/Nc1ccccn1
T/C (endpoint: mean tumor weight (est.), dose: 12.5 mg/kg/injection, schedule: Q01DX011 (ip), vehicle: saline with Tween-80, higher = larger tumour): 85 % of control
T/C (endpoint: mean tumor weight (est.), dose: 25.0 mg/kg/injection, schedule: Q01DX011 (ip), vehicle: saline with Tween-80, higher = larger tumour): 84 % of control
T/C (endpoint: mean tumor weight (est.), dose: 50.0 mg/kg/injection, schedule: Q01DX011 (ip), vehicle: saline with Tween-80, higher = larger tumour): 81 % of control
T/C (endpoint: median survival time, dose: 12.5 mg/kg/injection, schedule: Q01DX011 (ip), vehicle: saline with Tween-80, higher = longer survival): 94 % of control
T/C (endpoint: median survival time, dose: 25.0 mg/kg/injection, schedule: Q01DX011 (ip), vehicle: saline with Tween-80, higher = longer survival): 88 % of control

O=c1[nH]c(=O)n([C@H]2CCCO2)cc1F
T/C (endpoint: mean tumor weight (est.), dose: 39.0 mg/kg/injection, schedule: Q01DX011 (ip), vehicle: saline, higher = larger tumour): 112 % of control
T/C (endpoint: mean tumor weight (est.), dose: 65.0 mg/kg/injection, schedule: Q01DX011 (ip), vehicle: saline, higher = larger tumour): 40 % of control
T/C (endpoint: median survival time, dose: 25.0 mg/kg/injection, schedule: Q04DX004 (ip), vehicle: other, higher = longer survival): 112 % of control
T/C (endpoint: median survival time, dose: 39.0 mg/kg/injection, schedule: Q01DX011 (ip), vehicle: saline, higher = longer survival): 90 % of control
T/C (endpoint: median survival time, dose: 50.0 mg/kg/injection, schedule: Q04DX004 (ip), vehicle: other, higher = longer survival): 100 % of control
T/C (endpoint: median survival time, dose: 65.0 mg/kg/injection, schedule: Q01DX011 (ip), vehicle: saline, higher = longer survival): 119 % of control
T/C (endpoint: median survival time, dose: 100.0 mg/kg/injection, schedule: Q04DX004 (ip), vehicle: other, higher = longer survival): 100 % of control
T/C (endpoint: median survival time, dose: 200.0 mg/kg/injection, schedule: Q04DX004 (ip), vehicle: other, higher = longer survival): 103 % of control

Nc1ncc(N)c(N)n1
T/C (endpoint: mean tumor weight (est.), dose: 40.0 mg/kg/injection, schedule: Q01DX011 (ip), vehicle: saline, higher = larger tumour): 80 % of control
T/C (endpoint: mean tumor weight (est.), dose: 80.0 mg/kg/injection, schedule: Q01DX011 (ip), vehicle: saline, higher = larger tumour): 88 % of control
T/C (endpoint: mean tumor weight (est.), dose: 160.0 mg/kg/injection, schedule: Q01DX011 (ip), vehicle: saline, higher = larger tumour): 119 % of control
T/C (endpoint: median survival time, dose: 40.0 mg/kg/injection, schedule: Q01DX011 (ip), vehicle: saline, higher = longer survival): 103 % of control
T/C (endpoint: median survival time, dose: 80.0 mg/kg/injection, schedule: Q01DX011 (ip), vehicle: saline, higher = longer survival): 98 % of control
T/C (endpoint: median survival time, dose: 160.0 mg/kg/injection, schedule: Q01DX011 (ip), vehicle: saline, higher = longer survival): 94 % of control

CCCSc1ncnc2nc[nH]c12
T/C (endpoint: mean tumor weight, dose: 25.0 mg/kg/injection, schedule: Q01DX011 (ip), vehicle: other, higher = larger tumour): 80 % of control
T/C (endpoint: median survival time, dose: 25.0 mg/kg/injection, schedule: Q01DX011 (ip), vehicle: other, higher = longer survival): 102 % of control

COc1ccc(C(=O)c2cc(OC)c(OC)c(OC)c2)cc1OC
T/C (endpoint: mean tumor weight (est.), dose: 100.0 mg/kg/injection, schedule: Q01DX011 (ip), vehicle: saline with Tween-80, higher = larger tumour): 34 % of control
T/C (endpoint: mean tumor weight (est.), dose: 200.0 mg/kg/injection, schedule: Q01DX011 (ip), vehicle: saline with Tween-80, higher = larger tumour): 51 % of control
T/C (endpoint: mean tumor weight (est.), dose: 400.0 mg/kg/injection, schedule: Q01DX011 (ip), vehicle: saline with Tween-80, higher = larger tumour): 43 % of control
T/C (endpoint: median survival time, dose: 100.0 mg/kg/injection, schedule: Q01DX011 (ip), vehicle: saline with Tween-80, higher = longer survival): 93 % of control
T/C (endpoint: median survival time, dose: 200.0 mg/kg/injection, schedule: Q01DX011 (ip), vehicle: saline with Tween-80, higher = longer survival): 89 % of control
T/C (endpoint: median survival time, dose: 400.0 mg/kg/injection, schedule: Q01DX011 (ip), vehicle: saline with Tween-80, higher = longer survival): 108 % of control
